Active and inactive are the calls of the source. No cut-off for these calls is given here.
How the values were obtained:
[1] = system: N2a; assay: Neuritogenic activity in mouse Neuro2a cells assessed as morphological changes at 3 ug/mL after 24 or 48 hrs; assay type: functional, cell-based
[2] = system: N2a; assay: Neuritogenic activity in mouse Neuro2a cells assessed as morphological changes at 1 ug/mL after 24 or 48 hrs; assay type: functional, cell-based

Compound	Activity [1]	Activity [2]
COc1cccc2c1C(=O)c1c(O)c3c(c(O)c1C2=O)C[C@@](O)(C(=O)CO)C[C@@H]3O[C@H]1C[C@H](N)[C@H](O)[C@H](C)O1	inactive	–
C[C@@H]1O[C@@H](Oc2cccc3c2C(=O)c2c(O)c4c(c(O)c2C3=O)C[C@](C)(O)C[C@@H]4O)[C@@H](O)[C@H](N(C)C)[C@@H]1O	–	Active

From ChEMBL document CHEMBL1147238, “Komodoquinone A, a novel neuritogenic anthracycline, from marine Streptomyces sp. KS3” (J Nat Prod, 2003)
